Data as given in patent US9511073B2, “Aromatic amides and uses thereof” (TAXIS Pharmaceuticals, Inc., priority 2011, dated 2016).
In brackets after ≈: the same amount, converted by molar mass. Where two headings read alike, the source gives them in different places.

Legend:
[1] = test system: Staphylococcus aureus (Isolate ID ATCC 29213); test: Bacterial assay: MIC by broth microdilution or agar dilution (CLSI), S. aureus ATCC 29213; assay type: cell-based; settings: Staphylococcus aureus
Summary of the method: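 MICs by CLSI broth microdilution or agar dilution against S. aureus ATCC 29213 and its FtsZ-G196A mutant. Values reported as ranges: A ≤0.25 μg/mL, B >0.25–1.0, C >1.0–16, D >16 μg/mL.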

S. hominis ATCC 27844 = test: MIC, staphylococcal panel; assay type: cell-based; settings: Staphylococcus hominis, ATCC27844
Method: (§1) Compounds are tested for antimicrobial activity by susceptibility testing in liquid or on solid media. Minimum inhibitory concentrations (MICs) for compounds against each strain are determined by the broth microdilution or agar dilution method according to the guidelines of the Clinical Laboratories and Standards Institute, formerly the National Committee for Clinical Laboratory Standards (Clinical Laboratories and Standards Institute. Methods for Dilution Antimicrobial Susceptibility Tests for Bacteria That Grow Aerobically; Approved Standard—Seventh Edition. Document M7-A7. CLSI, Wayne, Pa., 2006; Clinical Laboratories and Standards Institute). The bacterial strains tested include S. aureus (Staphylococcus aureus (Isolate ID ATCC 29213)) and an FtsZ mutant of this isolate (FtsZ-G196A Staphylococcus aureus (Isolate ID GG/190723/sa/1.2)). Compound MICs were determined to be in the following activity ranges “A” activity≦0.25 μg/mL; “B” activity>0.25 μg/mL-1.0 μg/mL; “C” activity>1.0 μg/mL-16 μg/mL; “D” activity>16 μg/mL and ND=not determined. The bracketed entries indicate entantiomer(s) and their activity.
(§2) Selected compounds were also tested against a panel of target strains and their MICs are shown in Table 3 against the gold standard Linezolid. […] The activity of the compounds observed against S. aureus was also shown to be maintained within a narrow range across the staphylococcal panel tested.

[2] = test system: S. haemolyticus ATCC 29970; test: MIC, staphylococcal panel; assay type: cell-based; settings: Staphylococcus haemolyticus, ATCC29970
Method: as §1, §2

[3] = test system: S. epidermidis ATCC 12228; test: MIC, staphylococcal panel; assay type: cell-based; settings: Staphylococcus epidermidis, ATCC12228
Method: as §1, §2

[4] = test system: S. aureus ATCC 19636 (Smith); test: MIC, staphylococcal panel; assay type: cell-based; settings: Staphylococcus aureus, ATCC19636
Method: as §1, §2

[5] = test system: S. saprophyticus ATCC 43809; test: MIC, staphylococcal panel; assay type: cell-based; settings: Staphylococcus saprophyticus, ATCC43809
Method: as §1, §2

[6] = test system: S. lugdunensis ATCC 43809; test: MIC, staphylococcal panel; assay type: cell-based; settings: Staphylococcus lugdunensis, ATCC43809
Method: as §1, §2

S. warneri ATCC 49454 = test: MIC, staphylococcal panel; assay type: cell-based; settings: Staphylococcus warneri, ATCC49454
Method: as §1, §2

[7] = Pharmacokinetic assay: plasma concentration by LC/MS/MS after single intravenous or peroral dose of 3 mg/kg; assay type: in vivo; settings: mouse, plasma, 3 mg/kg IV dosing in mice
Method: The pharmacokinetic profiles of selected comparator compounds A-N in Table 6 and compounds of the invention were determined by measuring the compound concentration in plasma by LC/MS/MS following a single intravenous or peroral administration of the compounds at a dose of 3 mg/kg. The concentrations described are the mean plasma concentrations at each time point from three animals. Intravenous dose formulation was administered as a single bolus dose through the tail vein. Oral dose formulation was administered to animals by an oral gavage needle. In both cases the dose volume was 5.0 mL/kg. Blood was collected from anesthetized mice through a capillary guided into the retro-orbital plexus. The collected blood was centrifuged to obtain plasma and the compounds extracted into methanol prior to determining the compound concentration by LC/MS/MS. The results are shown graphically in FIG. 1 and for the AUC and CL parameters in Table 6.

[8] = test system: FtsZ-G196A Staphylococcus aureus (Isolate ID GG/190723/sa/1.2); test: Bacterial assay: MIC, FtsZ G196A mutant strain; assay type: cell-based; settings: read-out: MIC (μg/mL) G196A mutant strain
Method: as §1
The comparative activity of selected compounds having a bromo-substituted oxazole against their corresponding non-brominated analogues is shown in Table 4.

[9] = test system: S. aureus ATCC 43300 (MRSA); test: microbe, parasite or virus in culture; assay type: cell-based; settings: Staphylococcus aureus
Method: as §1, §2

[10] = test system: S. aureus ATCC BAA-44 (MDRSA); test: microbe, parasite or virus in culture; assay type: cell-based; settings: Staphylococcus aureus, ATCCBAA44
Method: as §1, §2

In the case of `NC(=O)c1c(F)ccc(O[C@H](CO)c2nc(-c3ccc(C(F)(F)F)cc3)c(Br)o2)c1F` (single isomer, unassigned) [Compound 38B], the MIC ([1]; ATCC29213, Staphylococcus aureus ATCC 29213, Table 3 panel) is reported as 0.125 µg/mL (≈ 0.246 µM), the MIC ([1]; ATCC29213, read-out: MIC (μg/mL) S. aureus (ATCC29213), Table 5, racemate and enantiomers) is reported as 0.125 µg/mL (≈ 0.246 µM) and the MIC ([1]; ATCC29213, read-out: S. aureus MIC (μg/mL) Activity Range, S. aureus (ATCC29213)) is reported as < 0.25 µg/mL. The MIC (S. hominis ATCC 27844) was 0.125 µg/mL (≈ 0.246 µM), the MIC [2] was 0.125 µg/mL (≈ 0.246 µM) and the MIC [3] was 0.125 µg/mL (≈ 0.246 µM). The MIC [4] was 0.125 µg/mL (≈ 0.246 µM), the MIC [5] was 0.06 µg/mL (≈ 0.118 µM) and the MIC [6] was 0.25 µg/mL (≈ 0.493 µM). For the same compound, the MIC (S. warneri ATCC 49454) was 0.25 µg/mL (≈ 0.493 µM), the clearance [7] was 12 mL/min/kg and the AUC ([7]; read-out: AUC) was 4000 ng·h/mL. It also gave an MIC [8] of 2 µg/mL (≈ 3.94 µM), an MIC [9] of 0.125 µg/mL (≈ 0.246 µM) and an MIC [10] of 0.125 µg/mL (≈ 0.246 µM).
